# Measurements reported in paper PMC10302202, “The Finding of New In Vivo Metabolite Triptorelin (5-10) in Human Urine Using Liquid Chromatography Coupled with Ion Trap/Time-of-Flight Mass Spectrometry with Dimethyl Sulfoxide Additives in the Mobile Phase” (Molecules, 2023).
# Non-standard residues stand in square brackets, D forms with d. Residues, ends and D or L forms follow the SMILES beside them.
# Experiments:
# [1] = Urine levels of leuprorelin and leuprorelin (5-9) in patients after leuprorelin administration (LC/MS-IT-TOF); settings: SPE; for detection level in urine, 3 h / detection level in urine, 6 h: first time, prostate cancer patient
# Procedure: Sample analysis was carried out by using the LCMS-IT-TOF Prominence system (Shimadzu, Japan) and LC model UPLC 8040 [18]. The analytical column was a Poroshell 120 EC-C18 (2.1 mm × 150 mm, 2.7 μm particle) coupled with a guard column (SecurityGuard^TM C18, 3.0 mm). The column compartment temperature was set at 30 °C. The autosampler unit temperature was set at 10 °C. Dry gas was set at 47 kPa, and nebulizer gas was set at 1.5 L/min. The curved desolvation line (CDL) and heating block temperature were set at 250 °C. The spray voltage was set at 4 kV.
# Urine samples were collected at the Division of Urology, Department of Surgery, Faculty of Medicine, Ramathibodi Hospital, Bangkok, Thailand. […] Urine samples were collected at 0.0, 3.0, and 6.0 h from 5 patients who had received either 11.25 mg of Enantone® L.P (leuprorelin acetate) or Diphereline® P.R. (triptorelin pamoate) intramuscularly for the first time.
# In this study, 200 mL of sodium phosphate buffer (pH 6.8; 0.8 M) was added to a 3.0 mL aliquot of urine. The batch of samples was centrifuged at 5000 rpm for 5 min at 5 °C. The supernatant from each tube was transferred to a new set of protein LoBind® tubes, Eppendorf (Melbourne, Australia) and 20 μL of ISTD (see Section 4.3) was added to each sample [17]. SPE cartridges (see Section 4.1) were activated with 2 mL of methanol followed by 2 mL of ultra-pure water. The supernatants were slowly loaded onto the SPE cartridges (flow rate is approximately 1.0 mL/min) and washed with 1 mL of water, followed by 1 mL of freshly prepared 10% v/v aqueous methanol; then, all washing solutions were removed and dried using a vacuum pump. Elution was performed using freshly prepared 10% v/v formic acid in methanol. Eluates were evaporated at 45 °C to approximately 10 μL in a vacuum centrifuge. The residues were reconstituted in 50 μL of freshly prepared 0.1% formic acid in water.
# The mobile phases were 0.1% formic acid in water with or without 1% DMSO (mobile phase A) and acetonitrile (mobile phase B) at a flow rate of 0.3 mL/min. The mobile phase gradient program was as follows: 0.0–2.0 min, 20 to 30% B; 2.0–4.0 min, 30 to 45% B; 4.0–5.0 min, 45 to 100% B; 5.0–6.0 min, hold at 100% B; 6.0–7.0 min, 100% to 20% B; and 7.0–9.0 min hold at 20% B (column equilibration). The injection volume was 30 μL. The total runtime is 9 min.
# Mass spectrometric analysis was employed both in the full-scan mode and MS-MS mode. Data analysis was performed using 2 product ion transitions for each compound. LC/MS-IT-TOF mass spectrometric variables, including the m/z of product ions, ion accumulation time, and collision energy (CE), were optimized for maximum abundance for each ion transition. Ionization was performed using ESI in the positive ion mode at 3500 V. The ion accumulation time was 10 milliseconds, and the isolation width was 1.5 Dalton.
# The mean and standard deviation of the concentration of leuprorelin, leuprorelin (5-9), triptorelin, and triptorelin (5-10) from 5 patients were used for statistical analysis.
# [2] = clinical; settings: human, in vivo, im, 11.25 mg, detection level in urine, mean
# [3] = Urine levels of triptorelin and triptorelin (5-10) in patients after triptorelin administration (LC/MS-IT-TOF); type: in vivo, human; settings: for detection level in urine, 3 h / detection level in urine, 6 h: first time, prostate cancer patient
# Procedure: The column compartment temperature was set at 30 °C. The autosampler unit temperature was set at 10 °C. […] The spray voltage was set at 4 kV.
# A further urine sample was collected one month later.
# The injection volume was 30 μL. The total runtime is 9 min.
# [4] = in vivo; cited from earlier work
compound,measurement,setting,value
"CCNC(=O)[C@@H]1CCCN1C(=O)[C@H](CCCNC(=N)N)NC(=O)[C@H](CC(C)C)NC(=O)[C@@H](CC(C)C)NC(=O)[C@@H](N)Cc1ccc(O)cc1 [Leuprorelin (5-9), leuprorelin (5-9)] (H-Y[dL]LRP-NHEt)","detection level in urine, 3 h, mean","[1]; mean of n = 5 patients, urine 3 h after 11.25 mg Enantone L.P (leuprorelin acetate) intramuscularly",74.8 ng/mL
same,"detection level in urine, 6 h, mean","[1]; mean of n = 5 patients, urine 6 h after 11.25 mg Enantone L.P (leuprorelin acetate) intramuscularly",78.9 ng/mL
same,"detection level in urine, 3 h","[1]; patient 1, urine 3 h after 11.25 mg Enantone L.P (leuprorelin acetate) intramuscularly",68.0 ng/mL
same,"detection level in urine, 6 h","[1]; patient 1, urine 6 h after 11.25 mg Enantone L.P (leuprorelin acetate) intramuscularly",73.1 ng/mL
same,"detection level in urine, 3 h","[1]; patient 2, urine 3 h after 11.25 mg Enantone L.P (leuprorelin acetate) intramuscularly",106.9 ng/mL
same,"detection level in urine, 6 h","[1]; patient 2, urine 6 h after 11.25 mg Enantone L.P (leuprorelin acetate) intramuscularly",18.7 ng/mL
same,"detection level in urine, 3 h","[1]; patient 3, urine 3 h after 11.25 mg Enantone L.P (leuprorelin acetate) intramuscularly",162.9 ng/mL
same,"detection level in urine, 6 h","[1]; patient 3, urine 6 h after 11.25 mg Enantone L.P (leuprorelin acetate) intramuscularly",100.4 ng/mL
same,"detection level in urine, 3 h","[1]; patient 4, urine 3 h after 11.25 mg Enantone L.P (leuprorelin acetate) intramuscularly",16.7 ng/mL
same,"detection level in urine, 6 h","[1]; patient 4, urine 6 h after 11.25 mg Enantone L.P (leuprorelin acetate) intramuscularly",23.8 ng/mL
same,"detection level in urine, 3 h","[1]; patient 5, urine 3 h after 11.25 mg Enantone L.P (leuprorelin acetate) intramuscularly",19.3 ng/mL
same,"detection level in urine, 6 h","[1]; patient 5, urine 6 h after 11.25 mg Enantone L.P (leuprorelin acetate) intramuscularly",178.7 ng/mL
"CCNC(=O)[C@@H]1CCCN1C(=O)[C@H](CCCNC(=N)N)NC(=O)[C@H](CC(C)C)NC(=O)[C@@H](CC(C)C)NC(=O)[C@H](Cc1ccc(O)cc1)NC(=O)[C@H](CO)NC(=O)[C@H](Cc1c[nH]c2ccccc12)NC(=O)[C@H](Cc1c[nH]cn1)NC(=O)[C@@H]1CCC(=O)N1 [Leuprorelin, leuprorelin]",level at 3 h,[2]; 3 h,65 ng/mL
same,level at 6 h,[2]; 6 h,106 ng/mL
"CC(C)C[C@H](NC(=O)[C@@H](Cc1c[nH]c2ccccc12)NC(=O)[C@@H](N)Cc1ccc(O)cc1)C(=O)N[C@@H](CCCNC(=N)N)C(=O)N1CCC[C@H]1C(=O)NCC(N)=O [Triptorelin (5-10), triptorelin (5-10)] (H-Y[dW]LRPG-NH2)","detection level in urine, 1 month, mean","[3]; mean line, n = 5 for triptorelin, n = 3 for triptorelin (5-10), urine 1 month after 11.25 mg Diphereline P.R. (triptorelin pamoate) intramuscularly, ND = not detectable",0.7 ng/mL
same,"detection level in urine, 3 h, mean","[3]; mean of n = 5 patients, urine 3 h after 11.25 mg Diphereline P.R. (triptorelin pamoate) intramuscularly, SPE, LC/MS-IT-TOF",105.5 ng/mL
same,"detection level in urine, 1 month","[3]; patient 1, urine 1 month after 11.25 mg Diphereline P.R. (triptorelin pamoate) intramuscularly, ND = not detectable, SPE, LC/MS-IT-TOF",1.2 ng/mL
same,"detection level in urine, 3 h","[3]; patient 1, urine 3 h after 11.25 mg Diphereline P.R. (triptorelin pamoate) intramuscularly, SPE, LC/MS-IT-TOF",84.3 ng/mL
same,"detection level in urine, 6 h","[3]; patient 1, urine 6 h after 11.25 mg Diphereline P.R. (triptorelin pamoate) intramuscularly, SPE, LC/MS-IT-TOF",24.7 ng/mL
same,"detection level in urine, 1 month","[3]; patient 2, urine 1 month after 11.25 mg Diphereline P.R. (triptorelin pamoate) intramuscularly, ND = not detectable, SPE, LC/MS-IT-TOF",0.3 ng/mL
same,"detection level in urine, 3 h","[3]; patient 2, urine 3 h after 11.25 mg Diphereline P.R. (triptorelin pamoate) intramuscularly, SPE, LC/MS-IT-TOF",25.3 ng/mL
same,"detection level in urine, 6 h","[3]; patient 2, urine 6 h after 11.25 mg Diphereline P.R. (triptorelin pamoate) intramuscularly, SPE, LC/MS-IT-TOF",43.5 ng/mL
same,"detection level in urine, 3 h","[3]; patient 3, urine 3 h after 11.25 mg Diphereline P.R. (triptorelin pamoate) intramuscularly, SPE, LC/MS-IT-TOF",12.8 ng/mL
same,"detection level in urine, 6 h","[3]; patient 3, urine 6 h after 11.25 mg Diphereline P.R. (triptorelin pamoate) intramuscularly, SPE, LC/MS-IT-TOF",3.2 ng/mL
same,"detection level in urine, 3 h","[3]; patient 4, urine 3 h after 11.25 mg Diphereline P.R. (triptorelin pamoate) intramuscularly, SPE, LC/MS-IT-TOF",225.7 ng/mL
same,"detection level in urine, 6 h","[3]; patient 4, urine 6 h after 11.25 mg Diphereline P.R. (triptorelin pamoate) intramuscularly, SPE, LC/MS-IT-TOF",250.6 ng/mL
same,"detection level in urine, 1 month","[3]; patient 5, urine 1 month after 11.25 mg Diphereline P.R. (triptorelin pamoate) intramuscularly, ND = not detectable, SPE, LC/MS-IT-TOF",0.6 ng/mL
same,"detection level in urine, 3 h","[3]; patient 5, urine 3 h after 11.25 mg Diphereline P.R. (triptorelin pamoate) intramuscularly, SPE, LC/MS-IT-TOF",179.1 ng/mL
same,"detection level in urine, 6 h","[3]; patient 5, urine 6 h after 11.25 mg Diphereline P.R. (triptorelin pamoate) intramuscularly, SPE, LC/MS-IT-TOF",202.0 ng/mL
"CC(C)C[C@H](NC(=O)[C@@H](Cc1c[nH]c2ccccc12)NC(=O)[C@H](Cc1ccc(O)cc1)NC(=O)[C@H](CO)NC(=O)[C@H](Cc1c[nH]c2ccccc12)NC(=O)[C@H](Cc1c[nH]cn1)NC(=O)[C@@H]1CCC(=O)N1)C(=O)N[C@@H](CCCNC(=N)N)C(=O)N1CCC[C@H]1C(=O)NCC(N)=O [Triptorelin, triptorelin]",level at 3 h,"[3]; human, urine, im, 11.25 mg, mean of n = 5 patients, urine 3 h after 11.25 mg Diphereline P.R. (triptorelin pamoate) intramuscularly, SPE, LC/MS-IT-TOF, read-out: detection level in urine, 3 h, mean",64.1 ng/mL
same,level at 6 h,"[3]; human, urine, im, 11.25 mg, mean of n = 5 patients, urine 6 h after 11.25 mg Diphereline P.R. (triptorelin pamoate) intramuscularly, SPE, LC/MS-IT-TOF, read-out: detection level in urine, 6 h, mean",62.6 ng/mL
GnRH: endogenous 10-amino-acid peptide synthesized and produced in the hypothalamus,half-life,[4],2 min
